Laboratory results: patent US7012067B2, “Blood lipid ameliorant composition” (Sankyo Company, Limited, priority 2000, dated 2006)

Columns and labels:
Type in all cases: in vivo
blood lipid peroxides = test: Blood lipid peroxide levels in dogs (Yagi's methods); conditions: beagle dogs, oral once daily, relative to pre-dosing level (100), mean of 5, simvastatin 1 mg/kg
Text: (§1) Beagle dogs aged 5 months were purchased from Covance Research Products Inc. and used after 1 month of quarantine and acclimatisaton breeding.
(§2) The required amounts of simvastatin or each component of the combination drug calculated from the body weight of each dog were weighed and filled in a gelatin capsule (½ ounce) purchased from TORPAC Inc. Capsules filled with simvastatin were stocked in a refrigerator and those filled with combination drugs stocked at room temperature until use.
(§3) The combination drugs were filled in identical gelatin capsules.
(§4) Simvastatin or combination drug capsules were forcibly orally administered to each of the test animals once daily between 9:00 and 12:30. Animals were fasted for 2 or 3 hr prior to administration of the capsules.
(§5) The administration period was 11 successive days.
(§6) Blood (10 mL) was collected from the superficial radial vein 2 or 1 weeks prior to administration and 4, 8, and 12 days after administration was started. Animals were fasted for approximately 18 hr prior to blood collection. Collected blood was placed in a test tube and left at room temperature for 0.5-1 hr, before being centrifuged (3,000 rpm for 10 min). The obtained serum was used for assays of blood levels of lipid peroxides, total cholesterol, triglycerides, free fatty acids, GOT, and CPK according to Yagi's methods, CEH-COD-POD methods, GK-GPO-POD methods, ACS-ACOD methods, UV-rate methods, and UV-rate methods, respectively. (For ACS-ACOD (Acyl-CoA synthetase-Acyl-CoA oxidase peroxidase) methods, CEH-COD-POD (Cholesterol ester hydrolase-Cholesteroloxidase-Peroxidase) methods, Yagis methods and GK-GPO-POD (Glycerokinase-Glycerolphosphateoxidase-Peroxidase)methods, see: Kanai's Manual of Clinical Laboratory Medicine; 31st Edition (September 1998), Kanehara & Co., Ltd.)
(§7) All these levels were determined using a fluorometer (Hitachi, Ltd., F3000), a full automatic analyzer (Monarch, Instrumentation Laboratory), and an automatic analyzer (7170, Hitachi, Ltd.).
(§8) All these values in dogs treated with one of the drugs described above were converted to their relative ratios against their averaged pre-dosing levels (100) determined 2 and 1 weeks prior to drug administration. The averaged value in each group was obtained from 5 animals per group.

blood triglycerides = test: Blood triglyceride levels in dogs (GK-GPO-POD methods); conditions: beagle dogs, oral once daily, relative to pre-dosing level (100), mean of 5
Text: as §1, §2, §3, §4, §5, §6, §7, §8

blood total cholesterol = test: Blood total cholesterol levels in dogs (CEH-COD-POD methods); conditions: beagle dogs, oral once daily, relative to pre-dosing level (100), mean of 5, simvastatin 1 mg/kg, taurine 1000 mg/kg
Text: as §1, §2, §3, §4, §5, §6, §7, §8

GOT = test: Serum GOT levels in dogs (UV-rate methods); conditions: beagle dogs, oral once daily, relative to pre-dosing level (100), mean of 5, simvastatin 1 mg/kg, Tocoph 300 mg/kg
Text: as §1, §2, §3, §4, §5
(§9) Blood (10 mL) was collected from the superficial radial vein 2 or 1 weeks prior to administration and 4, 8, and 12 days after administration was started. Animals were fasted for approximately 18 hr prior to blood collection. Collected blood was placed in a test tube and left at room temperature for 0.5-1 hr, before being centrifuged (3,000 rpm for 10 min). The obtained serum was used for assays of blood levels of lipid peroxides, total cholesterol, triglycerides, free fatty acids, GOT, and CPK according to Yagi's methods, CEH-COD-POD methods, GK-GPO-POD methods, ACS-ACOD methods, UV-rate methods, and UV-rate methods, respectively.
as §8

blood free fatty acids = test: Blood free fatty acid levels in dogs (ACS-ACOD methods); conditions: beagle dogs, oral once daily, relative to pre-dosing level (100), mean of 5, simvastatin 1 mg/kg
Text: as §1, §2, §3, §4, §5, §6, §7, §8

CPK = test: Serum CPK levels in dogs (UV-rate methods); conditions: beagle dogs, oral once daily, relative to pre-dosing level (100), mean of 5, simvastatin 1 mg/kg, ascorbic acid 500 mg/kg
Text: as §1, §2, §3, §4, §5, §9, §8

[1] = simvastatin 1 mg/kg (dose cell of simvastatin alone empty), taurine 1000 mg/kg
[2] = simvastatin 1 mg/kg, Tocoph 300 mg/kg
[3] = simvastatin 1 mg/kg, pantethine 300 mg/kg

| Structure (SMILES) | Blood Lipid Peroxide Levels after administration, 4 days (blood lipid peroxides; taurine 1000 mg/kg) | Blood Lipid Peroxide Levels after administration, 8 days (blood lipid peroxides; taurine 1000 mg/kg) | Blood Lipid Peroxide Levels after administration, 12 days (blood lipid peroxides; taurine 1000 mg/kg) | Blood Triglyceride Levels after administration, 4 days (blood triglycerides; [1]) | Blood Triglyceride Levels after administration, 8 days (blood triglycerides; [1]) | Blood Triglyceride Levels after administration, 12 days (blood triglycerides; [1]) | Blood Total Cholesterol Levels after administration, 4 days (blood total cholesterol) | Blood Total Cholesterol Levels after administration, 8 days (blood total cholesterol) | Blood Total Cholesterol Levels after administration, 12 days (blood total cholesterol) | GOT Levels after administration, 4 days (GOT) | GOT Levels after administration, 8 days (GOT) | GOT Levels after administration, 12 days (GOT) | Blood FFA Levels after administration, 4 days (blood free fatty acids; Tocoph 300 mg/kg) | Blood FFA Levels after administration, 8 days (blood free fatty acids; Tocoph 300 mg/kg) | Blood FFA Levels after administration, 12 days (blood free fatty acids; Tocoph 300 mg/kg) | Blood Triglyceride Levels after administration, 4 days (blood triglycerides; [2]) | Blood Triglyceride Levels after administration, 8 days (blood triglycerides; [2]) | Blood Triglyceride Levels after administration, 12 days (blood triglycerides; [2]) | Blood FFA Levels after administration, 4 days (blood free fatty acids; RFVb 200 mg/kg) | Blood FFA Levels after administration, 4 days (blood free fatty acids; ascorbic acid 500 mg/kg) | further results |
| --- | --- | --- | --- | --- | --- | --- | --- | --- | --- | --- | --- | --- | --- | --- | --- | --- | --- | --- | --- | --- | --- |
| NCCS(=O)(=O)O [Taurine, 2-aminoethanesulfonic acid] | 95.8 | 93.8 | 87.5 | 98.6 | 95.8 | 80.8 | 95.9 | 90.2 | 87.2 | – | – | – | – | – | – | – | – | – | – | – | – |
| CC(=O)Oc1c(C)c(C)c2c(c1C)CC[C@@](C)(CCC[C@H](C)CCC[C@H](C)CCCC(C)C)O2 [Tocoph, d-α-tocopherol acetate] | – | – | – | – | – | – | – | – | – | 114.9 | 139.7 | 109.1 | 115.4 | 103.1 | 86.2 | 106.3 | 119.0 | 75.9 | – | – | – |
| CCC(C)(C)C(=O)O[C@H]1C[C@@H](C)C=C2C=C[C@H](C)[C@H](CC[C@@H]3C[C@@H](O)CC(=O)O3)[C@H]21 [Simvastatin, (+)-(1S,3R,7S,8S,8aR)-1,2,3,7,8,8a-hexahydro-3,7-dimethyl-8-[2-[(2R4R )-tetrahydro-4-hydroxy-6-oxo-2H-pyran-2-yl]ethyl]-1-naphthyl 2,2-dimethylbutanoate] | 96.2 | 86.4 | 91.0 | 97.6 | 88.9 | 89.3 | 102.1 | 93.2 | 86.6 | 98.1 | 93.9 | 100.4 | 93.8 | 99.3 | 97.0 | 96.2 | 86.4 | 91.0 | 93.8 | 93.8 | Blood FFA Levels after administration, 8 days (blood free fatty acids; RFVb 200 mg/kg): 99.3; Blood FFA Levels after administration, 8 days (blood free fatty acids; ascorbic acid 500 mg/kg): 99.3; Blood FFA Levels after administration, 12 days (blood free fatty acids; RFVb 200 mg/kg): 97.0; Blood FFA Levels after administration, 12 days (blood free fatty acids; ascorbic acid 500 mg/kg): 97.0; Blood Lipid Peroxide Levels after administration, 4 days (blood lipid peroxides; RFVb 200 mg/kg): 96.2; Blood Lipid Peroxide Levels after administration, 4 days (blood lipid peroxides; ascorbic acid 500 mg/kg): 96.2; Blood Lipid Peroxide Levels after administration, 4 days (blood lipid peroxides; pantethine 300 mg/kg): 96.2; Blood Lipid Peroxide Levels after administration, 8 days (blood lipid peroxides; RFVb 200 mg/kg): 86.4; Blood Lipid Peroxide Levels after administration, 8 days (blood lipid peroxides; ascorbic acid 500 mg/kg): 86.4; Blood Lipid Peroxide Levels after administration, 8 days (blood lipid peroxides; pantethine 300 mg/kg): 86.4; Blood Lipid Peroxide Levels after administration, 12 days (blood lipid peroxides; RFVb 200 mg/kg): 91.0; Blood Lipid Peroxide Levels after administration, 12 days (blood lipid peroxides; ascorbic acid 500 mg/kg): 91.0; Blood Lipid Peroxide Levels after administration, 12 days (blood lipid peroxides; pantethine 300 mg/kg): 91.0; Blood Triglyceride Levels after administration, 4 days (blood triglycerides; [3]): 97.6; Blood Triglyceride Levels after administration, 8 days (blood triglycerides; [3]): 88.9; Blood Triglyceride Levels after administration, 12 days (blood triglycerides; [3]): 89.3; CPK Levels after administration, 4 days (CPK): 94.5; CPK Levels after administration, 8 days (CPK): 99.4; CPK Levels after administration, 12 days (CPK): 91.0 |
| O=C1O[C@H]([C@@H](O)CO)C(O)=C1O [Ascorbic acid, ascorbic acid] | – | – | – | – | – | – | – | – | – | – | – | – | – | – | – | – | – | – | – | 87.4 | Blood FFA Levels after administration, 8 days (blood free fatty acids; ascorbic acid 500 mg/kg): 109.6; Blood FFA Levels after administration, 12 days (blood free fatty acids; ascorbic acid 500 mg/kg): 97.8; Blood Lipid Peroxide Levels after administration, 4 days (blood lipid peroxides; ascorbic acid 500 mg/kg): 87.6; Blood Lipid Peroxide Levels after administration, 8 days (blood lipid peroxides; ascorbic acid 500 mg/kg): 89.9; Blood Lipid Peroxide Levels after administration, 12 days (blood lipid peroxides; ascorbic acid 500 mg/kg): 94.4; CPK Levels after administration, 4 days (CPK): 98.3; CPK Levels after administration, 8 days (CPK): 95.1; CPK Levels after administration, 12 days (CPK): 91.5 |
| CCCC(=O)OC[C@@H](OC(=O)CCC)[C@@H](OC(=O)CCC)[C@H](Cn1c2nc(=O)[nH]c(=O)c-2nc2cc(C)c(C)cc21)OC(=O)CCC [RFVb, riboflavin butyrate] | – | – | – | – | – | – | – | – | – | – | – | – | – | – | – | – | – | – | 97.6 | – | Blood FFA Levels after administration, 8 days (blood free fatty acids; RFVb 200 mg/kg): 101.2; Blood FFA Levels after administration, 12 days (blood free fatty acids; RFVb 200 mg/kg): 92.9; Blood Lipid Peroxide Levels after administration, 4 days (blood lipid peroxides; RFVb 200 mg/kg): 88.9; Blood Lipid Peroxide Levels after administration, 8 days (blood lipid peroxides; RFVb 200 mg/kg): 101.0; Blood Lipid Peroxide Levels after administration, 12 days (blood lipid peroxides; RFVb 200 mg/kg): 80.8 |
